Results as given in patent publication US4771041A, “Method for combating virus infection” (priority 1976, dated 1988).

Assays:
[1] = target: T1, E. coli DNA dependent RNA polymerase (Escherichia coli, UniProt P0A8T7+P0A8V2); experiment: Inhibition of E. coli DNA dependent RNA polymerase; type: biochemical
T1 construct: purchased Sigma
Protocol: (§1) Polymerases, nucleic acid template nucleoside triphosphates, of which guanosine triphosphate is tritium-labelled, salt and buffer are mixed at 0° C. in a total volume of 125 μl (for herpes DNA polymerase, see F. below). The concentrations of the nucleoside triphosphates UTP (uridine triphosphate), CTP (cytidinetriphosphate), GTP (guanosinetriphosphate) and ATP (adenosinetriphosphate) were generall 400, 400, 400, and 2000 μM, respectively. The test compound is also added in various concentrations to the mixture obtained. A standard mixture without test compound is also prepared using the same amounts of the ingredients. The enzyme reaction, i.e. synthesis of nucleic acid, is started by incubating the mixture at 37° C. For influenza RNA polymerases the temperature is 33° C. The reaction is allowed to proceed for 60 minutes in the assay of influenza and Micrococcus polymerases. […] The incorporation of labelled monomer into trichloroacetic acid insoluble nucleic acid product was measured in the following way. […] After drying the discs are measured for radioactivity in a liquid scintillation counter. The difference in radioactivity between samples with and without added compound is used to calculate the inhibition of the polymerase activity. The inhibition is expressed as percentage inhibition using the radioactivity of the standard sample as basis. […]

[2] = target: calf thymus DNA dependent RNA polymerase fraction B (DCB) (Bos taurus, UniProt A5PJW8+G3MZY8); experiment: Inhibition of calf thymus DNA dependent RNA polymerase fraction B; type: biochemical; settings: read-out: Inhibition % DCB
Protocol: as §1

T1 sequence (P0A8V2 whole entry): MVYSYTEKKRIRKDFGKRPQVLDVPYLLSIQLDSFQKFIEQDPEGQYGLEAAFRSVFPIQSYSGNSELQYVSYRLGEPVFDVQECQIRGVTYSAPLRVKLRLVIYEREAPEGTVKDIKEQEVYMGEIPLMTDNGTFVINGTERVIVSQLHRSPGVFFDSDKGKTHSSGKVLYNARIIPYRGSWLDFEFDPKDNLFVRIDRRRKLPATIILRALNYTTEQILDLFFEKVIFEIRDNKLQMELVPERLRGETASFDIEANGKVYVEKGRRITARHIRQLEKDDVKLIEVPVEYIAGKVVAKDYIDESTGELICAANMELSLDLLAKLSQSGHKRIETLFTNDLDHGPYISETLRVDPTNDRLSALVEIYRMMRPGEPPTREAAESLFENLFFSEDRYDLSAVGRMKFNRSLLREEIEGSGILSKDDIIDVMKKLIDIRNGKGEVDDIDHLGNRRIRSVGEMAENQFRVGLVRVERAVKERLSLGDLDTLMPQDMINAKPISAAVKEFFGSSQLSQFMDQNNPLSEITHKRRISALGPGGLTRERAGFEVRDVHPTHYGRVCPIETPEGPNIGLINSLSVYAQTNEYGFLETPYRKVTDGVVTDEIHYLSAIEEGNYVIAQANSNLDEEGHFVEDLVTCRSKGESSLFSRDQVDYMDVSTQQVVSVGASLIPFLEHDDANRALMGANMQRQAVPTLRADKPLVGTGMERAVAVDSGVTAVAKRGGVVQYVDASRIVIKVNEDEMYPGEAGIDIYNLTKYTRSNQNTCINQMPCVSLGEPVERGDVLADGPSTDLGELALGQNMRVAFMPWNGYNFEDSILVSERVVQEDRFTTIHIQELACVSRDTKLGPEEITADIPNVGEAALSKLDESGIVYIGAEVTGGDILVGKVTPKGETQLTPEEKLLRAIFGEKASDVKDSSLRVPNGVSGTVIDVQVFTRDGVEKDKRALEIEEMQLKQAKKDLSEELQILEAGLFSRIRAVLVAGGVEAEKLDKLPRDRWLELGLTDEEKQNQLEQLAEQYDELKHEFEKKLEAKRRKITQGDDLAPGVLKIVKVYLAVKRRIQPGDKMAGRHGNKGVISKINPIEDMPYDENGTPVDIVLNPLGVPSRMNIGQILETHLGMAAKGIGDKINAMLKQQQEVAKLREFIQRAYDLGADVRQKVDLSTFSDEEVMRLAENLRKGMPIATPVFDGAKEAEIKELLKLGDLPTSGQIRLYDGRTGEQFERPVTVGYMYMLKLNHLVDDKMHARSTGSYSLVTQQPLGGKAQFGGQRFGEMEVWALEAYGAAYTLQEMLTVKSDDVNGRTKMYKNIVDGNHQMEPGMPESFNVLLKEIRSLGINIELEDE
T1 sequence (P0A8T7 whole entry): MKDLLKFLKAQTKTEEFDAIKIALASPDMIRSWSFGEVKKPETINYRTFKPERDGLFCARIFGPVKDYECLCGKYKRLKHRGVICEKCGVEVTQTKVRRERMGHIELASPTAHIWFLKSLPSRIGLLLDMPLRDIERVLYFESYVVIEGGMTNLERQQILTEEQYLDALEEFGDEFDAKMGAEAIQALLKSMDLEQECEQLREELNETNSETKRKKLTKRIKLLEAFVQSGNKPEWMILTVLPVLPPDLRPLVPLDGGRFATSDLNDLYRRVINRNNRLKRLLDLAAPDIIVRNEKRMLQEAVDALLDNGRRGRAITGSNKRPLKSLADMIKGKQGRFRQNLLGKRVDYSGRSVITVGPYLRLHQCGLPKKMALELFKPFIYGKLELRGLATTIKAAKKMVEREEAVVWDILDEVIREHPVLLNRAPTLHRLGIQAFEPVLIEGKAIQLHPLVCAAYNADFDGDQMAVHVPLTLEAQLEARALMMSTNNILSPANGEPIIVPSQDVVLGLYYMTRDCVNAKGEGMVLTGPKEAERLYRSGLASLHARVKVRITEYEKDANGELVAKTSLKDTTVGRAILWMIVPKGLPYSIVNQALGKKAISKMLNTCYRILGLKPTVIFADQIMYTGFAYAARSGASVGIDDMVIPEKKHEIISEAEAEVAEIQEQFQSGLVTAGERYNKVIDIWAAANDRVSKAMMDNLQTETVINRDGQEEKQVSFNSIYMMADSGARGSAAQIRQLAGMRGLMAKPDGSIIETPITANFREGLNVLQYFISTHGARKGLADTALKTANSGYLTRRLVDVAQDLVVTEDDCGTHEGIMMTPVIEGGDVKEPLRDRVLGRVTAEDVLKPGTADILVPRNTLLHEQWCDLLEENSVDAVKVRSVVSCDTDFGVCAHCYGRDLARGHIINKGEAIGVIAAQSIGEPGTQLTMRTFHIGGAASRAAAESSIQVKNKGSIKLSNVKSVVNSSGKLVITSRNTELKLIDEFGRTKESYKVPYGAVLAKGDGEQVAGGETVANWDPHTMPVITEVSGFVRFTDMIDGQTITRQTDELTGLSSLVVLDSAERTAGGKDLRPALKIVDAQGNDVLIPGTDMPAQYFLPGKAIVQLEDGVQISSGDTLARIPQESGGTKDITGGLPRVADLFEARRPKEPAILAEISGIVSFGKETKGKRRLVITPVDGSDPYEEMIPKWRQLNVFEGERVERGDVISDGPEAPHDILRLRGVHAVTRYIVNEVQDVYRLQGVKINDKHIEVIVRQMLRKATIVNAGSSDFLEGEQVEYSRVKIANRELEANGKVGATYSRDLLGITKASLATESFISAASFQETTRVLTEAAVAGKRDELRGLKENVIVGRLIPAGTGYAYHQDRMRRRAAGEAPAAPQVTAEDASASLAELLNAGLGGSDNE
T1 sequence (P0A7Z4 whole entry, further chain): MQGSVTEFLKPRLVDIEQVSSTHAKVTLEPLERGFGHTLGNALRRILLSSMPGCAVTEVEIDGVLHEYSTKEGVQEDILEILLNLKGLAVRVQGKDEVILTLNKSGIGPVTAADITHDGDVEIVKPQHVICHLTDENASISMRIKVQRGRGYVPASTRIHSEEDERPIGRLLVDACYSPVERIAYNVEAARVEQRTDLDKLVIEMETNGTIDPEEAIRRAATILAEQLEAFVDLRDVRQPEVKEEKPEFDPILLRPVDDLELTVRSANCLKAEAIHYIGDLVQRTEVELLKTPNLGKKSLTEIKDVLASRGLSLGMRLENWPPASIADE
T1 sequence (P0A800 whole entry, further chain): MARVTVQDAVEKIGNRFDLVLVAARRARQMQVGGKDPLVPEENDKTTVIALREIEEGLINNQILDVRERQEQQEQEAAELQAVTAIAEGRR

With `O=C(O)P(=O)(O)O` [phosphonoformic acid] the inhibition at 500 µM [1] was 3% and the inhibition at 500 µM [2] was 0%.
